Assays:
Type in all cases: biochemical
[1] = target: T1, MelBEc (Escherichia coli, UniProt P02921); assay: Trp to dansyl FRET, reversed by melibiose; details: solubilised in NDT-C11; fluorescent ligand displaced by melibiose
[2] = target: T1, MelBEc; assay: melibiose reversal of Trp to D2G FRET; details: solubilised in NDT-C11; displaces D2G
[3] = target: MelBSt (melibiose permease of Salmonella typhimurium) (Salmonella enterica, UniProt P30878); assay: melibiose reversal of Trp to D2G FRET; details: solubilised in DDM or NDT-C11; displaces D2G
MelBSt (melibiose permease of Salmonella typhimurium), sequence (P30878 whole entry): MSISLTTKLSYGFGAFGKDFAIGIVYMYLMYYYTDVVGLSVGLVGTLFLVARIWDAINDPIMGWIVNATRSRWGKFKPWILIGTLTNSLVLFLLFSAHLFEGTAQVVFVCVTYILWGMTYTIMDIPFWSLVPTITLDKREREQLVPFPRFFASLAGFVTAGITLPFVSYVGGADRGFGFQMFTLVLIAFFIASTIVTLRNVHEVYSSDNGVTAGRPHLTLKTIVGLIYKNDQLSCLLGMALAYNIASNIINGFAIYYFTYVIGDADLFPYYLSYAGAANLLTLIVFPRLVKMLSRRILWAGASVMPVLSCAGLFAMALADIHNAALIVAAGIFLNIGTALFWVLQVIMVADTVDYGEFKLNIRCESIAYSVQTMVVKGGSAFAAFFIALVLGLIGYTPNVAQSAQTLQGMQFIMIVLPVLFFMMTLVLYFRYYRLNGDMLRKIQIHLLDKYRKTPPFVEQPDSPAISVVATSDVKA

T1 sequence (P02921 2-473): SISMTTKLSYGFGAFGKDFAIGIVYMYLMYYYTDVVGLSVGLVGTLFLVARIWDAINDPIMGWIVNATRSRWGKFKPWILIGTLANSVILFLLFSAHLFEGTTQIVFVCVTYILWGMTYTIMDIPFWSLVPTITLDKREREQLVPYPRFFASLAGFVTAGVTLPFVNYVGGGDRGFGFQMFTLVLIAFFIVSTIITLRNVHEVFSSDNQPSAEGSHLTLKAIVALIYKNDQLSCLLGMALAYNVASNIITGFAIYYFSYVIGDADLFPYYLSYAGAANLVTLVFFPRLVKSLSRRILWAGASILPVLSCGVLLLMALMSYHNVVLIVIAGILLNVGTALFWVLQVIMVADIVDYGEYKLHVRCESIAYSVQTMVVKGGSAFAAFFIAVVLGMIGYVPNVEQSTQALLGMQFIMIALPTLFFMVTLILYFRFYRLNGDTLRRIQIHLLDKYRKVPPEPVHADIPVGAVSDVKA

SMILES | Trp to dansyl FRET, reversed by melibiose [1] | melibiose reversal of Trp to D2G FRET [2] | melibiose reversal of Trp to D2G FRET [3]
CN(C)c1cccc2c(S(=O)(=O)NCCS[C@@H]3O[C@H](CO)[C@H](O)[C@H](O)[C@H]3O)cccc12 [2′-(N-dansyl)aminoalkyl-1-thio-β-D-galactopyranoside] | FRET response of the D^2G bound MelB to melibiose or water addition | – | –
OC[C@H]1O[C@H](OC[C@H]2OC(O)[C@H](O)[C@@H](O)[C@@H]2O)[C@H](O)[C@@H](O)[C@H]1O (stereo partly drawn) [melibiose] | – | NDT-C11 is capable of maintaining the melibiose binding activity of both MelBSt and MelBEc | MelBSt solubilized in DDM or NDT-C11 was subjected to melibiose reversal of Trp

Source: article PMC4836865 (Chemical Science, 2015)
